In general, IC50 refers to the concentration needed to halve the response being measured.

SMILES strings stand for the structures.

Experimental findings from patent US9840498B2, “Substituted quinazolin-4-one derivatives” (NOVARTIS AG, priority 2013, dated 2017) are described below.

The target in this experiment is PI3K delta (Homo sapiens (Human), UniProt O00329). The experiment can be described thus: Biochemical assay for PI3Kdelta (Adapta TR-FRET format). Conditions: enzymatic assay. From the text: For the enzymatic assays, the preparation of PI3K gene constructs, protein expression and purification for HTS are described in WO2012/004299. […] The TR-FRET Adapta™ Universal Kinase Assay Kit was purchased from Invitrogen Corporation (Carlsbad/CA, USA) (Cat. No. PV5099). The kit contains the following reagents: Adapta Eu-anti-ADP Antibody (Europium labeled anti-ADP antibody in HEPES buffered saline, Cat. No. PV5097), Alexa Fluor® 647-labeled ADP tracer (Alexa Fluor® 647-labeled ADP tracer in HEPES buffered saline, Cat. No. PV5098), proprietary TR-FRET dilution buffer pH 7.5 (Cat. No. PV3574). PIK3CD substrate Phosphatidylinositol was obtained from Invitrogen (vesicules consisting of 2 mM PI in 50 mM HEPES pH7.5; Cat. No. PV5371). PIK3CG substrate Phosphatidylinositol-4,5-bisphosphate (PIP(4,5)2 was obtained from Invitrogen (PIP2:PS large unilamellar vesicules consisting of 1 mM PI P2: 19 mM PS in 50 mM HEPES pH7.5, 3 mM MgCl2, 1 mM EGTA; Cat. No. PV5100). Time-Resolved Fluorescence Resonance Energy Transfer (TR-FRET) is a technology based on energy transfer between two adjacent dyes, from an excited electron in one dye (the donor) to an electron of an adjacent dye (the acceptor) through resonance, then released as a photon. This energy transfer is detected by an increase in the fluorescence emission of the acceptor, and a decrease in the fluorescence emission of the donor. TR-FRET assays for protein kinases use a long-lifetime lanthanide Terbium or Europium chelates as the donor species which overcome interference from compound autofluorescence or light scatter from precipitated compounds, by introducing a delay after excitation by a flashlamp excitation source. Results are often expressed as a ratio of the intensities of the acceptor and donor fluorophores. The ratiometric nature of such a value corrects for differences in assay volumes between wells, as well as corrects for quenching effects due to colored compounds. The Adapta™ assay can be divided into two phases: a kinase reaction phase and an ADP detection phase. In the kinase reaction phase, all kinase reaction components are added to the well and the reaction is allowed to incubate for a set period of time specific for each kinase. After the reaction, a detection solution of Eu-labeled anti-ADP antibody, Alexa Fluor® 647-labeled ADP tracer, and EDTA (to stop the kinase reaction) are added to the assay well. ADP formed by the kinase reaction will displace the Alexa Fluor® 647-labeled ADP tracer from the antibody, resulting in a decrease in TR-FRET signal. In the presence of an inhibitor, the amount of ADP formed by the kinase reaction is reduced, and the resulting intact antibody-tracer interaction maintains a high TR-FRET signal. In the Adapta™ assay, the donor (Europium-anti-ADP antibody) is excited at 340 nm and will transfer its energy to the acceptor (Alexa Fluor® 647-labeled ADP tracer). The emission from the Alexa Fluor® 647 can be monitored with a filter centered at 665 nm because it is located between the emission peaks of the donor, which is measured at 615/620 nm. 50 nL of compound dilutions were dispensed onto white 384-well small volume polystyrene plate as described in section 2.2. Then 5 μL of PI3Kgamma and PI3Kdelta and lipid substrate (PI or PIP2:PS) followed by 5 μL of ATP (final assay volume 10 μL) are incubated at RT. […] Reactions were stopped with 5 μL of a mixture of EDTA containing the Eu-labeled anti-ADP antibody and the Alexa Fluor® 647-labeled ADP tracer in TR-FRET dilution buffer (proprietary to IVG). Plates are read 15 to 60 mins later in a Synergy2 reader using an integration time of 0.4 seconds and a delay of 0.05 seconds. […] The control for the 0% inhibition was given by the solvent vehicle of the compounds (90% DMSO in H2O). Data are analyzed using Excel fit software or Graphpad Prism. EC50 values were derived by fitting a sigmoidal dose-response curve to a plot of assay readout over inhibitor concentration. […]
Sequence of PI3K delta (O00329 2-1044): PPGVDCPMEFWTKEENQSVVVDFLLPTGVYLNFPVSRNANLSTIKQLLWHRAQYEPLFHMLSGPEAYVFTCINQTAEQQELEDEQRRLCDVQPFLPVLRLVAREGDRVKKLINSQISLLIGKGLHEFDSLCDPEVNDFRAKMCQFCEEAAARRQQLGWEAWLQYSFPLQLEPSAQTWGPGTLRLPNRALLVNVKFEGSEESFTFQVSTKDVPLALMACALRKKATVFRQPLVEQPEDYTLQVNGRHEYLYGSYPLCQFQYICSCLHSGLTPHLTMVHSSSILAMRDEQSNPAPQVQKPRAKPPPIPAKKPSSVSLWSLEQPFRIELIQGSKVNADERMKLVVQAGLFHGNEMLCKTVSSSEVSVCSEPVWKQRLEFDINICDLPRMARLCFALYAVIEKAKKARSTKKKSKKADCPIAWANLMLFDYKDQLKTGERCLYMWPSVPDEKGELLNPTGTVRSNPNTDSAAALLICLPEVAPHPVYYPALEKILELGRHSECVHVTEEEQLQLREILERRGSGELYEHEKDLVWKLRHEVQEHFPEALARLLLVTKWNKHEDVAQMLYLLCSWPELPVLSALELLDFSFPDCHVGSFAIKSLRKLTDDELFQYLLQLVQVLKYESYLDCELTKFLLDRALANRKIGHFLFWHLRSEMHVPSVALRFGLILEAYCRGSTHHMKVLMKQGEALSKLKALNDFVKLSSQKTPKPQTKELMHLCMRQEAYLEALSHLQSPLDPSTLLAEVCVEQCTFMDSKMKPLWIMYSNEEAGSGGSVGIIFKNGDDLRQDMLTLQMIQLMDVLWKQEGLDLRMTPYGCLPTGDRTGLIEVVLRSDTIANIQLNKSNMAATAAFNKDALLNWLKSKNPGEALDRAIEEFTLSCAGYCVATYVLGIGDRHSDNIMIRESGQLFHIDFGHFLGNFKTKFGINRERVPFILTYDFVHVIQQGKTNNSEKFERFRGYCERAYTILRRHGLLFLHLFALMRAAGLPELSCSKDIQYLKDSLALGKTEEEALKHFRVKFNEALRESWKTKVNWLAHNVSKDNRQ
Sequence of PI3K delta (P27986 461-568 partner): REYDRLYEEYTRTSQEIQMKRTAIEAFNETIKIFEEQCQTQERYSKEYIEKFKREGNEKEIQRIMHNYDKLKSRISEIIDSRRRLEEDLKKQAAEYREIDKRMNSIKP
(In TR-FRET formats the signal depends on donor and acceptor labels being close together.)
Take `Cc1nc(N)nc(N2CCC[C@H]2c2nc3cccc(-c4cncnc4)c3c(=O)n2-c2ccccc2)c1C#N` [Example 17, (S)-2-Amino-4-methyl-6-(2-(4-oxo-3-phenyl-5-(pyrimidin-5-yl)-3,4-dihydroquinazolin-2-yl)pyrrolidin-1-yl)pyrimidine-5-carbonitrile]: the IC50 is 21 nM.

For `CCOc1ncc(-c2cccc3nc([C@@H]4CCCN4c4nc(N)nc(C)c4C#N)n(-c4ccccc4)c(=O)c23)cn1` [Example 32, (S)-2-Amino-4-(2-(5-(2-ethoxypyrimidin-5-yl)-4-oxo-3-phenyl-3,4-dihydroquinazolin-2-yl)pyrrolidin-1-yl)-6-methylpyrimidine-5-carbonitrile], the IC50 worked out at 5 nM.

As for `Cc1nc(N)nc(N2C[C@@H](O)C[C@H]2c2nc3ccc(F)c(-c4cn(C)cn4)c3c(=O)n2-c2ccccc2)c1C#N` [Example 31, 2-Amino-4-((2S,4S)-2-(6-fluoro-5-(1-methyl-1H-imidazol-4-yl)-4-oxo-3-phenyl-3,4-dihydroquinazolin-2-yl)-4-hydroxypyrrolidin-1-yl)-6-methylpyrimidine-5-carbonitrile], the half-maximal inhibitory concentration (IC50) was 13 nM. With `COc1ncc(-c2c(F)ccc3nc([C@@H]4C[C@H](O)CN4c4nc(N)nc(C)c4C#N)n(-c4ccccc4)c(=O)c23)cn1` [Example 7, 2-Amino-4-((2S,4S)-2-(6-fluoro-5-(2-methoxypyrimidin-5-yl)-4-oxo-3-phenyl-3,4-dihydroquinazolin-2-yl)-4-hydroxypyrrolidin-1-yl)-6-methylpyrimidine-5-carbonitrile] the figure was 6 nM. As for `COc1ccc(-c2cccc3nc([C@@H]4CCCN4c4nc(N)nc(C)c4C#N)n(-c4ccccc4)c(=O)c23)cn1` [Example 21, (S)-2-Amino-4-(2-(5-(6-methoxypyridin-3-yl)-4-oxo-3-phenyl-3,4-dihydroquinazolin-2-yl)pyrrolidin-1-yl)-6-methylpyrimidine-5-carbonitrile], the IC50 was determined as 24 nM. The result for `COc1ncc(-c2cccc3nc([C@@H]4C[C@H](OC)CN4c4nc(N)nc(C)c4C#N)n(-c4ccccc4)c(=O)c23)cn1` [Example 12, 2-Amino-4-((2S,4S)-4-methoxy-2-(5-(2-methoxypyrimidin-5-yl)-4-oxo-3-phenyl-3,4-dihydroquinazolin-2-yl)pyrrolidin-1-yl)-6-methylpyrimidine-5-carbonitrile] reads 5 nM; that for `Cn1cc(-c2c(F)ccc3nc([C@@H]4CCCN4c4ncnc(N)c4C#N)n(-c4ccccc4)c(=O)c23)cn1` [Example 5, (S)-4-Amino-6-(2-(6-fluoro-5-(1-methyl-1H-pyrazol-4-yl)-4-oxo-3-phenyl-3,4-dihydroquinazolin-2-yl)pyrrolidin-1-yl)pyrimidine-5-carbonitrile], 4 nM. Turning to `COc1ccc(-c2cccc3nc([C@@H]4C[C@H](O)CN4c4nc(N)nc(C)c4C#N)n(-c4ccccc4)c(=O)c23)cn1` [Example 27, 2-Amino-4-((2S,4S)-4-hydroxy-2-(5-(6-methoxypyridin-3-yl)-4-oxo-3-phenyl-3,4-dihydroquinazolin-2-yl)pyrrolidin-1-yl)-6-methylpyrimidine-5-carbonitrile], the IC50 was determined as 10 nM. Take `Cc1nc(N)nc(N2C[C@@H](F)C[C@H]2c2nc3cccc(-c4cnn(C)c4)c3c(=O)n2-c2ccccc2)c1C#N` [Example 30, 2-Amino-4-((2S,4S)-4-fluoro-2-(5-(1-methyl-1H-pyrazol-4-yl)-4-oxo-3-phenyl-3,4-dihydroquinazolin-2-yl)pyrrolidin-1-yl)-6-methylpyrimidine-5-carbonitrile]: the IC50 was 14 nM.

As for `Cn1cc(-c2c(F)ccc3nc([C@@H]4C[C@H](O)CN4c4ncnc(N)c4C#N)n(-c4ccccc4)c(=O)c23)cn1` [Example 8, 4-Amino-6-((2S,4S)-2-(6-fluoro-5-(1-methyl-1H-pyrazol-4-yl)-4-oxo-3-phenyl-3,4-dihydroquinazolin-2-yl)-4-hydroxypyrrolidin-1-yl) pyrimidine-5-carbonitrile], the IC50 was 14 nM. As for `Cc1ccccc1-n1c([C@@H]2CCCN2c2ncnc(N)c2C#N)nc2cccc(-c3cnn(C)c3)c2c1=O` [Example 14, (S)-4-Amino-6-(2-(5-(1-methyl-1H-pyrazol-4-yl)-4-oxo-3-(otolyl)-3,4-dihydroquinazolin-2-yl)pyrrolidin-1-yl)pyrimidine-5-carbonitrile], the IC50 came out at 74 nM. For the compound `CO[C@H]1C[C@@H](c2nc3cccc(-c4cnn(C)c4)c3c(=O)n2-c2ccccc2)N(c2nc(N)nc(C)c2C#N)C1` [Example 10, 2-Amino-4-((2S,4S)-4-methoxy-2-(5-(1-methyl-1H-pyrazol-4-yl)-4-oxo-3-phenyl-3,4-dihydroquinazolin-2-yl)pyrrolidin-1-yl)-6-methylpyrimidine-5-carbonitrile], the IC50 was 6 nM.
